# Experimental data reported in PubChem BioAssay AID2743 (NMMLSC, 2010).
# Activity calls are given as the source filed them.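 The calls were made as follows: active = fitted half-maximal concentration for change in GFP expression of 33 µM or less; inactive = the rest.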
# Test system: S. cerevisiae AGP1-GFP strain, flow cytometry GFP, 3 h
# Assay: potency of AGP1-GFP expression modulators in yeast, dose response, cell-based, flow cytometry, S. cerevisiae, MLPCN hits (AID 2743)
# Conditions: not given
row,SMILES,EC50 [µM]
1,O=C(Oc1ccnc2cc(Cl)ccc12)N1CCCCCC1,3.86
2,CCCOc1ccc(C(=O)NNC(=S)NC(=O)CC)cc1,1.94
3,CCN(CC)C(=O)Oc1ccnc2cc(Cl)ccc12,7.21
4,CNc1nc(N)c([N+](=O)[O-])c(Nc2cccc(F)c2)n1,9.39
5,CCOC(=O)CS(=O)(=O)c1nc(-c2ccccc2)cc(C(F)(F)F)n1,1.38
6,O=C(OCC(=O)N1CCN(C(=O)c2ccco2)CC1)c1cc(-c2cccc(Br)c2)nc2ccccc12,2.81
7,CCOC(=O)CCS(=O)(=O)c1nc(-c2ccccc2)cc(C(F)(F)F)n1,0.941
8,O=C(C#Cc1cccc([N+](=O)[O-])c1)c1ccccc1,0.305
9,CC(=O)c1ccc(N2CCN(C(=O)c3ccc(Br)cc3)CC2)c(F)c1,6.92
10,Cc1ccc(S(=O)(=O)/N=C(\Sc2ccccc2)c2ccccc2)cc1,0.822
11,COC(=O)CCS(=O)(=O)c1nc(-c2ccccc2)cc(C(F)(F)F)n1,0.943
12,CS(=O)(=O)c1nc(-c2ccccc2)cc(C(F)(F)F)n1,0.653
13,CC(C)(C)C(=O)C(Cl)C(=O)Nc1ccccc1 (stereo not given),0.57
14,Cc1cccc(C)c1NC(=O)C(Cl)C(=O)c1ccccc1 (stereo not given),0.781
15,COc1ccc(N2CCN(C(=O)c3ccc(Br)cc3)CC2)c([N+](=O)[O-])c1,3.85
16,O=C(OCC(=O)N1CCN(C(=O)c2ccco2)CC1)c1cc(-c2ccccc2)nc2ccccc12,2.83
17,CN1CCN(C(=O)c2cc(COc3c(F)cccc3F)on2)CC1c1ccccc1 (stereo not given),3.89
18,CS(=O)(=O)c1nc(-c2cccs2)cc(C(F)(F)F)n1,0.872

# Test system: not listed separately
# Assay: as above
# Conditions: S. cerevisiae AGP1-GFP strain, flow cytometry GFP, 3 h; at 33 µM (top of the series)
row,SMILES,GFP fluorescence (kMESF)
1,O=C(OCC(=O)N1CCN(C(=O)c2ccco2)CC1)c1cc(-c2ccccc2)nc2ccccc12,43.7 kMESF (inactive)
2,C#CCOc1c(Br)cc(/C=C2/C(=O)ON=C2C)cc1OC,27.6 kMESF (inactive)
3,Cc1ccc(/C=C2/C(=O)ON=C2c2ccccc2)o1,40.1 kMESF (inactive)
4,C[C@@H]1C[C@@H]([C@H](O)CC2CC(=O)NC(=O)C2)C(=O)[C@@H](C)C1,26.8 kMESF (inactive)
5,Clc1ccc(N=c2ssnc2Cl)cc1,39.8 kMESF (inactive)
6,Cc1c(Br)c(=O)oc2c(Br)c(O)c(O)cc12,38 kMESF (inactive)
7,Cc1c(C(=O)Nc2nc(-c3ccccn3)cs2)oc2ccccc12,35.6 kMESF (inactive)
8,O=C(/C=C/Sc1ncn[nH]1)c1ccc(Cl)cc1,38 kMESF (inactive)
9,N/C(=N\OC(=O)c1ccccc1Cl)c1ccc(Cl)cc1,25.7 kMESF (inactive)
10,O=C1C(Cl)=C(N2CCN(Cc3ccccc3)CC2)C(=O)N1c1ccccc1,43.8 kMESF (inactive)
11,O=C(/C=C/c1cc(Br)ccc1O)c1ccco1,40.2 kMESF (inactive)
12,O=C1c2ccccc2C(=O)N1OS(=O)(=O)c1ccccc1,29.6 kMESF (inactive)
13,CCc1cccc2sc(N3CCN(C(=O)c4ccc([N+](=O)[O-])o4)CC3)nc12,12.4 kMESF (inactive)
14,Oc1c(Br)cc(Br)cc1C=Nc1ccc2[nH]ncc2c1,37.5 kMESF (inactive)
15,O=C1c2ccccc2C(=O)N1OS(=O)(=O)c1ccc(F)cc1,27 kMESF (inactive)
16,CCOC(=O)CS(=O)(=O)c1nc(-c2ccc(F)cc2)cc(C(F)(F)F)n1,50.7 kMESF (inactive)
17,Cc1[nH][nH]c(=O)c1C(c1ccc(-c2ccc(Cl)c(Cl)c2)o1)c1c(C)[nH][nH]c1=O,43.7 kMESF (inactive)
18,O=C1C=CC(=O)N1c1ccc(OC(F)F)cc1,27.8 kMESF (inactive)
19,CC(C)C[C@]1(c2ccccc2)ON(c2ccccc2C(F)(F)F)C1=O,34.6 kMESF (inactive)

row,SMILES,GFP fluorescence (kMESF)
1,CC(Oc1ccc2ccccc2c1)C(=O)NNC(=S)NC(=O)c1ccco1 (stereo not given),32.1 kMESF (inactive)
2,O=C(/C=C/c1ccnc2ccccc12)c1cccs1,45.9 kMESF (inactive)
3,Cc1ccccc1N=Nc1ccc(O)c2ncccc12,31.9 kMESF (inactive)
4,O=C(O)C1Sc2[nH]c(=O)sc2C2c3cc(Br)ccc3OC(=O)C12 (stereo not given),38.7 kMESF (inactive)
5,O=C(/C=C/c1ccc(F)cc1)NC(=S)NNC(=O)c1cnccn1,35.8 kMESF (inactive)
6,Cc1ccc(C2=NOC(=O)/C2=C\c2ccc(C)o2)cc1,32.4 kMESF (inactive)
7,O=C1C=C(Nc2ccc(Cl)cc2)C(=O)N1c1ccc(Cl)cc1,37.8 kMESF (inactive)
8,O=C(Sc1cccc2cccnc12)c1ccccc1Br,37.3 kMESF (inactive)
9,O=C1N(c2ccccc2C(F)(F)F)O[C@]1(c1ccccc1)C1CCCC1,32.8 kMESF (inactive)
10,CCN(CC)c1ccc2cc(-c3nc4ccccc4[nH]3)c(=O)oc2c1,48.4 kMESF (inactive)
11,CCN(CC)c1ccc2cc(-c3nc(-c4ccc(OC)cc4)cs3)c(=O)oc2c1,40.6 kMESF (inactive)
12,Cc1[nH]n(-c2ccccc2)c(=O)c1C(c1ccccc1[N+](=O)[O-])C(C#N)C#N (stereo not given),36.6 kMESF (inactive)
13,COc1ccc2c(c1)c1nnc(SC)nc1n2C,17.9 kMESF (inactive)
14,Cc1ccc(C)c(/C=C/C(=O)c2ccccc(=O)c2O)c1,10.5 kMESF (inactive)
15,O=C(NC(=S)Nc1ccc2oc(=O)ccc2c1)c1cccc(Cl)c1,29.8 kMESF (inactive)
16,O=C(/C=C/c1ccc(Br)cc1)NC(=S)NNC(=O)c1ccco1,36.3 kMESF (inactive)
17,Cc1ccc(S(=O)(=O)N2CCCC2C(=O)NCc2ccncc2)cc1 (stereo not given),32.1 kMESF (inactive)
18,CCC(=O)Nc1ccc(NC(=O)c2cc3ccccc3o2)c(OC)c1,44.6 kMESF (inactive)
19,O=C1C(Cl)=C(NCCc2ccccc2)C(=O)N1CCc1ccccc1,43.3 kMESF (inactive)

row,SMILES,GFP fluorescence (kMESF)
1,O=C(COc1ccccc1)NNC(=S)NC(=O)c1ccccc1,42.7 kMESF (inactive)
2,N#Cc1ccc(N=c2ssnc2Cl)cc1,33.2 kMESF (inactive)
3,CC(=O)NN1C(=O)/C(=C/c2ccc(Br)o2)SC1=S,40.5 kMESF (inactive)
4,CCCCCCCCCCCCCCCC[n+]1cccc2ccccc21,2.67 kMESF (inactive)
5,CCn1c(=O)c(C(C)=O)c(O)c2ccccc21,41.4 kMESF (inactive)
6,COC(=O)CCCC1=CC2=CC(=O)C(C)(OC(=O)CCc3ccccc3)C(=O)C2=CO1 (stereo not given),29.2 kMESF (inactive)
7,CC1=CC(=O)C(C(C)C)=C/C1=N/OS(=O)(=O)c1ccccc1,36.5 kMESF (inactive)
8,CC(=O)Nc1ncnc2c1c(-c1ccc(Cl)cc1)nn2C(C)(C)C,30.3 kMESF (inactive)
9,COc1ccc(C(=O)NC(=S)NNC(=O)c2cnccn2)cc1OC,30.2 kMESF (inactive)
10,Cc1ccc(NC(=O)CCc2ccccc2)cc1S(=O)(=O)N1CCOCC1,40.4 kMESF (inactive)
11,CCN(CC)C(=S)SSC(=S)N(CC)CC,37.5 kMESF (inactive)
12,CCN1/C(=C/c2ccc3cc(C)ccc3[n+]2CC)Sc2ccc3sccc3c21,43.3 kMESF (inactive)
13,CCOC(=O)/C(=C\c1cn(C)c2ccccc12)[N+](=O)[O-],41.9 kMESF (inactive)
14,COc1ccc(N=Nc2ccc(O)c3ncccc23)cc1,40.8 kMESF (inactive)
15,O=C(c1ccccn1)c1conc1C(=O)c1ccc(Br)cc1,39.4 kMESF (inactive)
16,Cc1cccc(C(=O)NC(=S)NNC(=O)Cc2ccccc2)c1,37.6 kMESF (inactive)
17,COc1cc(SSc2cc(OC)cc([N+](=O)[O-])c2N)c(N)c([N+](=O)[O-])c1,48.9 kMESF (inactive)
18,Cc1ccccc1OCC(=O)NNC(=S)NC(=O)c1ccco1,43.5 kMESF (inactive)
19,O=C(O)c1ccn2c(C(=O)c3ccccc3)c(-c3ccccc3)cc2c1,37.7 kMESF (inactive)
